Reference: patent US20030125337A1, “Inhibitors of multidrug transporters” (priority 1998, published 2003)
Converted amounts (≈) assume the structure as drawn. Read-outs that look alike come from different tables or passages of the source.

What was measured:
S. aureus (SA1199B) = assay: Minimal inhibitor concentration decreasing the ciprofloxacin MIC two fold, S. aureus SA1199B; format: cell-based; conditions: Staphylococcus aureus, read-out: Effectivity IC50* S. Aureus
NorA [1] = target: T1, NorA (Staphylococcus aureus, UniProt P0A0J7); conditions: cited from earlier work
T1 construct: expressed in transfected cells; host or cells: Bacillus subtilis strain NA
T1 sequence (P0A0J7 whole entry): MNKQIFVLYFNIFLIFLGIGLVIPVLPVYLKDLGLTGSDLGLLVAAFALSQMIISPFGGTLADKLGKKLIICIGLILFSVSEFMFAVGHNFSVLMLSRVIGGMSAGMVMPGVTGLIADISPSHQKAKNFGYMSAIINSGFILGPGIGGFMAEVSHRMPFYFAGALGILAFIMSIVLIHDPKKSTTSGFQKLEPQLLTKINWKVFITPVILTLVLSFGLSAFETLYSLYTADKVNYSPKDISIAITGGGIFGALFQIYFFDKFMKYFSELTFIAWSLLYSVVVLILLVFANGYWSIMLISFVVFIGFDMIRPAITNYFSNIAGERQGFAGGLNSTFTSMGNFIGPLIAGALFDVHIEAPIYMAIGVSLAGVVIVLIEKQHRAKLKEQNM

NorA [2] = target: T1, NorA; conditions: reference for CoMFA predictions; cited from earlier work
NorA [3] = target: T1, NorA; format: cell-based; conditions: FIG. 8; reserpine 20 μg/ml, INF 55, 240, 271, 392 5 μg/ml, INF 277 10 μg/ml
Procedure: Effect of the lead inhibitors on ethidium efflux from NA cells. NA cells were loaded with ethidium in the presence of reserpine and allowed to efflux in the absence of reserpine (A) in the presence of 20 μg/ml reserpine (B), 5 μg/ml of INF 55 (C), 5 μg/ml of INF 240 (D), 5 μg/ml of INF 271 (E), 5 μg/ml of INF 392 (F), or 10 μg/ml of INF 277 (G). Fluorescence intensity is proportional to the amount of ethidium remaining inside the cells.
NA cells overexpressing NorA were loaded with ethidium bromide in the presence of reserpine (20 μg/ml). After washing, cells were placed in a fluorimeter cuvette with fresh medium.

S. pneumoniae (SPC2A) = assay: Minimal inhibitor concentration decreasing the ciprofloxacin MIC two fold, S. pneumoniae SPC2A; format: cell-based; conditions: Streptococcus pneumoniae; SPC2A; minimal concentration required to decrease the MIC for ciprofloxacin by two fold; N.A. = not active at 5 μg/ml; read-out: IC50 S. Pneumoniae
Bmr = Bmr (Bacillus subtilis, UniProt P33449); conditions: cited from earlier work
Chain of Bmr (P33449 whole entry): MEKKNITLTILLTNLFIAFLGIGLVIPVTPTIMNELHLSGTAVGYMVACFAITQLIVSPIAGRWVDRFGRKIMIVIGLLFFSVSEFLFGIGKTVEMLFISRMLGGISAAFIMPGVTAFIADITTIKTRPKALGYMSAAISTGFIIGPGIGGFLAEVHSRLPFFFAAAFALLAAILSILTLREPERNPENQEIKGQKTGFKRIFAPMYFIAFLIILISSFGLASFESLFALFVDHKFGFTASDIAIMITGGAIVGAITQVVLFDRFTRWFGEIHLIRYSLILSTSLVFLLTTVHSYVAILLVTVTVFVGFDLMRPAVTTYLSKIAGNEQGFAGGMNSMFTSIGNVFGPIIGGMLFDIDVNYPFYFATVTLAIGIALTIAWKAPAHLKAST

B. subtilis = conditions: inhibition of the Bmr transporter; cited from earlier work
[4] = system: NorA-overexpressing S. aureus, SA1199B; assay: Frequency of emergence of SA1199B mutants insensitive to the NorA inhibitor (adaptation of NorA); format: cell-based; conditions: mutagenized SA1199B, ethidium bromide 10 μg/ml, INF inhibitors 5 μg/ml, reserpine 20 μg/ml, 48 h
Procedure: To evaluate the possibility of such mutations arising in the NorA transporter the inventors determined the frequency of emergence of mutants of NorA-overexpressing S. aureus, SA1199B, that retained resistance to a NorA substrate in spite of the presence of a NorA inhibitor. […] After a 48 h incubation period the number of colonies on each plate was determined.

wild-type S. aureus = conditions: cited from earlier work
[5] = system: wild type S. aureus SA1199; format: cell-based; conditions: INF inhibitors 5 μg/ml, reserpine 20 μg/ml; for Fold inhibition of emergence of resistance: ciprofloxacin resistance, SA1199
Procedure: The effect of the inhibitors on the rate of emergence of in vitro selected single-step ciprofloxacin resistant mutants of wild type S. aureus SA1199 (Kaatz et al., 1990) was determined.
Ciprofloxacin resistance in first step in vitro selected mutants of S. aureus is predominantly due to specific point mutations in the targets of this drug, topoisomerase IV and gyrase (Cambau and Gutman, 1993; Ferrero et al., 1994).

E. faecalis = conditions: cited from earlier work
[6] = system: first step mutants of S. pneumoniae (ATCC 49619); conditions: three first step mutants, non-toxic concentration
S. pneumoniae = conditions: cited from earlier work
[7] = S. pneumoniae strain EBR, non-toxic concentrations

**Q.** Which results are given for COC(=O)[C@H]1[C@H]2C[C@@H]3c4[nH]c5cc(OC)ccc5c4CCN3C[C@H]2C[C@@H](OC(=O)c2cc(OC)c(OC)c(OC)c2)[C@@H]1OC [Reserpine, reserpine]?
**A.** IC50 (S. aureus (SA1199B)): 6.25 µg/mL (≈ 10.3 µM); inhibition of drug efflux mediated by NorA (NorA [1]): completely inhibited; concentration at which known to be active (NorA [2]): 5 µg/mL; inhibition of the decrease in fluorescence due to NorA-mediated ethidium efflux (NorA [3]): dramatically inhibited; IC50 (S. pneumoniae (SPC2A)): 5 µg/mL (≈ 8.21 µM); inhibition of drug efflux mediated by Bmr (Bmr): completely inhibited; reduction of the MIC of norfloxacin (B. subtilis): by a factor of five; Frequency of adaptation of NorA (mutants insensitive to the inhibitor) [4]: approximately 2×10^−8; reduction of the MIC of norfloxacin (wild-type S. aureus): at least four-fold; Frequency of emergence of variants resistant to two fold the MIC of ciprofloxacin, Spontaneous ([5]; SA1199, ciprofloxacin 1 μg/ml, 48 h): <5 × 10^−11; Frequency of emergence of variants resistant to two fold the MIC of ciprofloxacin, Mutagenized ([5]; SA1199 mutagenized with ethylmethane sulfonate): <2.5 × 10^−10; Fold inhibition of emergence of resistance [5]: >50; Fold inhibition of emergence of resistance ([5]; listed as reserpine): more than one order of magnitude; increase in susceptibility to fluoroquinolones (E. faecalis): two-fold increase; reversal of resistance to ciprofloxacin and ethidium bromide [6]: reversed the resistance; inhibition of ethidium efflux (S. pneumoniae; [7]): inhibited ethidium efflux; reversal of resistance to ethidium and fluoroquinolones (S. pneumoniae; [7]): reversed the resistance; potentiation of susceptibility to ethidium and fluoroquinolones (S. pneumoniae; wild type S. pneumoniae): two to three fold; factor of reduction of the MIC of norfloxacin and ciprofloxacin (S. pneumoniae; wild-type S. pneumoniae): 2-3
